# Entries after “also recorded” stand apart in the source; their conditions may differ. Read-outs that look alike come from different tables or passages of the source.
# Columns and labels:
# [1] = Physical appearance of SDC-TRAP-0063 formulations and infusion solutions with different diluents and carbonate buffers; type: physicochemical
# Description: First, a stock solution of SDC-TRAP-0063 was prepared in DMSO at 22 mg/mL, then the required amount of tween 80 was added and mixed well.
# The above formulation containing SDC-TRAP-0063 was diluted using either D5W, D5W (pH 10.5, adjusted with 4.55 mM NaOH) or carbonate buffer, pH 10) (final drug concentration.: 1 mg/mL SDC-TRAP-0063, 1.8% v/v Tween 80, 5% v/v DMSO). The physical observations on these solutions were noted before and filtration through 0.22μ PES filter and were further observed for 3 hr. Refer to the table below for summary of observations. Note: Carbonate buffer, pH 10 was prepared by mixing 0.1M sodium carbonate (27.5 mL) and 0.1M sodium bicarbonate (22.5 mL) and qs 200 mL with DIW. The total Na content of carbonate buffer was 39 mM.
# A stock solution of SDC-TRAP-0063 was prepared in either DMSO or PEG-300. To prepare formulations containing DMSO and tween 80, required amount of tween 80 added to the stock of DMSO (containing SDC-TRAP-0063). The formulations were then was diluted with carbonate buffer, pH 10 (composition: add and mix 0.1M sodium carbonate (27.5 mL) and 0.1M sodium bicarbonate (22.5 mL) and qs 200 mL with DIW). The samples (prepared in glass vial) were mixed well and observed for physical appearance while stirring on a magnetic stirring plate at ambient. (Note-appropriate amounts of SDC-TRAP-0063, tween 80, DMSO and PEG-300, as applicable were used to prepare the solutions at the desired concentrations and drug concentrations at 1 mg/mL through 5 mg/mL as shown).
# Carbonate buffers of different pH (pH 9-10) and ionic strengths (with higher (>2) Na contents that SDC-TRAP-0063 on molar basis) were prepared and used for diluting the DMSO/tween 80 formulation loaded with SDC-TRAP-0063 (as described in earlier section 3). The final concentrations of DMSO and tween 80 in the diluted carbonate buffer were 5% v/v and 1.8% v/v respectively. The drug concentration was kept constant (5 mg/mL) for all diluted samples.
# [2] = mouse, in vivo; for Tumor Conc.: female, SCID
# [3] = test system: HCT-116 human colorectal xenografts; assay: Mouse xenograft efficacy in HCT-116 colon cancer model; conditions: IV
# Description: The cells were maintained in vitro as a monolayer culture in McCoy's 5a Medium. Fetal bovine serum was then be added to the medium. The final concentration of fetal bovine serum was 10%. Cells were cultured at 37° C. and 5% CO2. The tumor cells were routinely sub-cultured twice weekly by trypsin-EDTA treatment. Cells in an exponential growth phase were harvested and counted for tumor inoculation.
# 100 18-22 g, 5-7 week old, female BALB/cA nude mice were inoculated with the HCT 116 cells (2.0×10^6, 1:1 with Matrigel) subcutaneously on the back of each animal (0.1 mL/mouse). When the average tumor volume reached about 150-250 mm^3, 60 of the inoculated mice was selected based on tumor growth and randomly grouped into 6 treatment groups (10 mice per group) according to the following table.
# The administrations were made with 27-gauge IV needle.
# During the treatment period, the implanted tumors were measured by caliper twice per week. The tumors were measured for the maximum width (X) and length (Y) and the tumor volumes (V) were calculated using the formula: V=(X^2Y)/2. The differences in the tumor volume between the control and treatment groups were analyzed for significance using the unpaired two-tailed Student's t-test. P<0.05 was considered to be statistically significant. The animal body weights were also weighed and recorded twice per week.
structure (smiles),measurement,setting,value
"CCc1c2c(nc3ccc(OC(=O)N4CCC(CCn5ccc6cc(-n7c(O)nnc7-c7cc(C(C)C)c(O)cc7O)ccc65)CC4)cc13)-c1cc3c(c(=O)n1C2)COC(=O)[C@]3(O)CC [SDC-TRAP-0063, 4,11-diethyl-4-hydroxy-3,14-dioxo-3,4,12,14-tetrahydro-1H-pyrano[3′,4′:6,7]indolizino[1,2-b]quinolin-9-yl 4-(2-(5-(3-(2,4-dihydroxy-5-isopropylphenyl)-5-hydroxy-4H-1,2,4-triazol-4-yl)-1H-indol-1-yl)ethyl)piperidine-1-carboxylate]",Observations (physical appearance),"[1]; 5% v/v DMSO, carbonate buffer pH 10 (39 mM Na), 2 mg/mL, 30 min",Cloudy
same,Observations (physical appearance),"[1]; 5% v/v DMSO, carbonate buffer pH 10 (39 mM Na), 2 mg/mL, 1 h",Cloudy
same,Observations (physical appearance),"[1]; 5% v/v DMSO, carbonate buffer pH 10 (39 mM Na), 2 mg/mL, 6 h",Cloudy
same,Observations (physical appearance),"[1]; 5% v/v DMSO, carbonate buffer pH 10 (39 mM Na), 2 mg/mL, Initial",Cloudy
same,Observations (physical appearance),"[1]; 5% v/v DMSO, carbonate buffer pH 10 (39 mM Na), 2 mg/mL, Overnight",Opaque (less cloudy than at 6 h)
same,Observations (physical appearance),"[1]; 5% v/v DMSO, carbonate buffer pH 10 (39 mM Na), 3 mg/mL, 30 min",Cloudy
same,Observations (physical appearance),"[1]; 5% v/v DMSO, carbonate buffer pH 10 (39 mM Na), 3 mg/mL, 1 h",Cloudy
same,Observations (physical appearance),"[1]; 5% v/v DMSO, carbonate buffer pH 10 (39 mM Na), 3 mg/mL, 6 h",Cloudy
same,Observations (physical appearance),"[1]; 5% v/v DMSO, carbonate buffer pH 10 (39 mM Na), 3 mg/mL, Initial",Cloudy
same,Observations (physical appearance),"[1]; 5% v/v DMSO, carbonate buffer pH 10 (39 mM Na), 3 mg/mL, Overnight",Cloudy
same,Observations (physical appearance),"[1]; 5% v/v DMSO, carbonate buffer pH 10 (39 mM Na), 4 mg/mL, 30 min",Cloudy
same,Observations (physical appearance),"[1]; 5% v/v DMSO, carbonate buffer pH 10 (39 mM Na), 4 mg/mL, 1 h",Cloudy
same,Observations (physical appearance),"[1]; 5% v/v DMSO, carbonate buffer pH 10 (39 mM Na), 4 mg/mL, 6 h",Cloudy
same,Observations (physical appearance),"[1]; 5% v/v DMSO, carbonate buffer pH 10 (39 mM Na), 4 mg/mL, Initial",Cloudy
same,Observations (physical appearance),"[1]; 5% v/v DMSO, carbonate buffer pH 10 (39 mM Na), 4 mg/mL, Overnight",Cloudy
same,Observations (physical appearance),"[1]; 5% v/v DMSO, carbonate buffer pH 10 (39 mM Na), 5 mg/mL, 30 min",Cloudy
same,Observations (physical appearance),"[1]; 5% v/v DMSO, carbonate buffer pH 10 (39 mM Na), 5 mg/mL, 1 h",Cloudy
same,Observations (physical appearance),"[1]; 5% v/v DMSO, carbonate buffer pH 10 (39 mM Na), 5 mg/mL, 6 h",Cloudy
same,Observations (physical appearance),"[1]; 5% v/v DMSO, carbonate buffer pH 10 (39 mM Na), 5 mg/mL, Initial",Cloudy
same,Observations (physical appearance),"[1]; 5% v/v DMSO, carbonate buffer pH 10 (39 mM Na), 5 mg/mL, Overnight",Cloudy
same,"physical appearance after dilution with carbonate buffer, pH 10","[1]; DMSO alone 5% v/v, 2 mg/mL through 5 mg/mL",stayed cloudy for more than 24 h
same,"physical appearance after dilution with carbonate buffer, pH 10","[1]; PEG-300 formulations, 1 mg/mL and 2 mg/mL",appeared clear at 30 mm and 1 hr of stirring respectively
same,"physical appearance after dilution with carbonate buffer, pH 10","[1]; PEG-300 formulations, 3 mg/mL, 4 mg/mL and 5 mg/mL",took longer and were clear next day
same,Observations (physical appearance),"[1]; […] v/v PEG-300, carbonate buffer pH 10 (39 mM Na), 1 mg/mL, 30 min","clear,"
same,Observations (physical appearance),"[1]; […] v/v PEG-300, carbonate buffer pH 10 (39 mM Na), 1 mg/mL, 1 h","clear, yellow"
same,Observations (physical appearance),"[1]; […] v/v PEG-300, carbonate buffer pH 10 (39 mM Na), 1 mg/mL, 2 h","clear, yellow"
same,Observations (physical appearance),"[1]; […] v/v PEG-300, carbonate buffer pH 10 (39 mM Na), 1 mg/mL, Initial",slightly
same,Observations (physical appearance),"[1]; […] v/v PEG-300, carbonate buffer pH 10 (39 mM Na), 1 mg/mL, Overnight","clear, yellow"
same,Observations (physical appearance),"[1]; […] v/v PEG-300, carbonate buffer pH 10 (39 mM Na), 2 mg/mL, 30 min",Translucent
same,Observations (physical appearance),"[1]; […] v/v PEG-300, carbonate buffer pH 10 (39 mM Na), 2 mg/mL, 1 h","clear, yellow"
same,Observations (physical appearance),"[1]; […] v/v PEG-300, carbonate buffer pH 10 (39 mM Na), 2 mg/mL, 2 h","clear, yellow"
same,Observations (physical appearance),"[1]; […] v/v PEG-300, carbonate buffer pH 10 (39 mM Na), 2 mg/mL, Initial",cloudy
same,Observations (physical appearance),"[1]; […] v/v PEG-300, carbonate buffer pH 10 (39 mM Na), 2 mg/mL, Overnight","clear, yellow"
same,Observations (physical appearance),"[1]; […] v/v PEG-300, carbonate buffer pH 10 (39 mM Na), 3 mg/mL, 30 min",cloudy
same,Observations (physical appearance),"[1]; […] v/v PEG-300, carbonate buffer pH 10 (39 mM Na), 3 mg/mL, 1 h",cloudy
same,Observations (physical appearance),"[1]; […] v/v PEG-300, carbonate buffer pH 10 (39 mM Na), 3 mg/mL, 2 h",cloudy
same,Observations (physical appearance),"[1]; […] v/v PEG-300, carbonate buffer pH 10 (39 mM Na), 3 mg/mL, Initial",cloudy
same,Observations (physical appearance),"[1]; […] v/v PEG-300, carbonate buffer pH 10 (39 mM Na), 3 mg/mL, Overnight","clear, yellow"
same,Observations (physical appearance),"[1]; […] v/v PEG-300, carbonate buffer pH 10 (39 mM Na), 4 mg/mL, 30 min",cloudy
same,Observations (physical appearance),"[1]; […] v/v PEG-300, carbonate buffer pH 10 (39 mM Na), 4 mg/mL, 1 h",cloudy
same,Observations (physical appearance),"[1]; […] v/v PEG-300, carbonate buffer pH 10 (39 mM Na), 4 mg/mL, 2 h",cloudy
same,Observations (physical appearance),"[1]; […] v/v PEG-300, carbonate buffer pH 10 (39 mM Na), 4 mg/mL, Initial",cloudy
same,Observations (physical appearance),"[1]; […] v/v PEG-300, carbonate buffer pH 10 (39 mM Na), 4 mg/mL, Overnight","clear, yellow"
same,Observations (physical appearance),"[1]; […] v/v PEG-300, carbonate buffer pH 10 (39 mM Na), 5 mg/mL, 30 min",cloudy
same,Observations (physical appearance),"[1]; […] v/v PEG-300, carbonate buffer pH 10 (39 mM Na), 5 mg/mL, 1 h",cloudy
same,Observations (physical appearance),"[1]; […] v/v PEG-300, carbonate buffer pH 10 (39 mM Na), 5 mg/mL, 2 h",cloudy
same,Observations (physical appearance),"[1]; […] v/v PEG-300, carbonate buffer pH 10 (39 mM Na), 5 mg/mL, Initial",cloudy
same,Observations (physical appearance),"[1]; […] v/v PEG-300, carbonate buffer pH 10 (39 mM Na), 5 mg/mL, Overnight","clear, yellow"
same,achievable drug concentration in solution,"[1]; carbonate buffer pH about 10, high ionic strength, […] v/v tween 80 and 5% v/v DMSO",at least 5 mg/mL
same,time to clear solution,"[1]; high ionic strength carbonate buffer at pH 9.5, 5 mg/mL",≤ 3 h
same,physical appearance in lower pH carbonate buffers,"[1]; pH 9.3 and pH 9.5, 5% v/v DMSO + […] v/v tween 80, 5 mg/mL",remain cloudy even after stirring overnight
same,Tumor Conc.,[2]; 6 h,1.61 nmol/g of tissue
same,Tumor Conc.,[2]; 24 h,0.203 nmol/g of tissue
same,Tumor Conc.,[2]; 48 h,0.0188 nmol/g of tissue
same,Tumor Conc.,[2]; […],6.43 nmol/g of tissue
same,Plasma Conc.,[2],BQL
same,"tumor targeting (tissue distribution in plasma, tumor and heart)","[2]; iv, 50 mg/kg",selectively targets and accumulates in tumor cells
same,tolerability,"[3]; HCT-116 xenografts, Q7D×3",very well tolerated
same,antitumor activity in HCT-116 xenografts (FIG. 23),"[3]; Q7D×3, then drug-free period, SDC-TRAP-0063 200 and 100 mg/kg, SDC-TRAP-0046 94 mg/kg, irinotecan 67 mg/kg, SYN-01 100 mg/kg",remarkable and durable antitumor activity compared with irinotecan or ganetespib plus irinotecan; also recorded: better activity in inhibiting the growth of HCT-116 cells in vivo than either positive control group; also recorded: significant dose-dependent activity

# Source: patent US10828315B2 (Madrigal Pharmaceuticals, Inc., priority 2013, dated 2020)
